US11180767B2, “Protease deficient filamentous fungal cells and methods of use thereof” (GLYKOS FINLAND OY, priority 2012, dated 2021)
Non-standard residues stand in square brackets, D forms with d. Residues, ends and D or L forms follow the SMILES beside them. *: point of attachment. Sta = CC(C)C[C@H](N)[C@@H](O)CC(=O)O; Isovaleryl = CC(C)CC(=O)*

Legend:
[1] = test system: proteases in supernatant from the 6-fold protease deletion strain M400; assay: Protease stability of proteins spiked into supernatant of the 6-fold protease deletion strain; assay type: biochemical, Trichoderma reesei; conditions: pepstatin A 50 μM; SBTI 0.2 mg/ml; pH 4.2, 20 hours, 37°C
Description: The protease stability of the model proteins IGF1, hGH, and IFNα2b were analyzed by spiking them into supernatant from the 6-fold protease deletion strain (Δpep1Δtsp1Δslp1Δgap1Δgap2Δpep4) M400. The supernatant was collected from a large shake flask culture CAH15. The undiluted supernatant from the shake flask cultivation CAH15 was incubated with the purified model proteins with and without pepstatin A (50 μM) and SBTI (0.2 mg/ml) inhibitors for 20 hours at 37° C. The 5 day culture supernatant pH was around 4.2. The reaction containing 0.05 μg μl of model protein was sampled after 20 hours. 50 mM sodium citrate pH 4.0 spiked with model proteins (0.05 g 1) was used as a buffer control.
From each reaction 10 μl was loaded into an 18% SDS PAGE gel and run for 30 minutes at 200 V. The proteins in the gel were then transferred to nitrocellulose for immunoblotting. The nitrocellulose membrane was blocked for 1 hour at room temperature with 5% milk in TBST buffer. The individual blots were probed with their specific primary antibody to detect the appropriate model protein for 1 hour at room temperature on a shaker. The mouse anti-IGF1 antibody (R&D systems #mab291) was used at 2 μg/ml diluted in TBST. The mouse anti-rhGH antibody (Abeam #ab51232) was used at 2 μg/ml diluted in TBST. The mouse anti-IFNα2b antibody (Abeam #ab9386) was used at 1 μg/ml diluted in TBST. After briefly washing the blot membranes with TBST, the secondary antibody was added for 1 hour at room temperature shaking. The secondary goat anti-mouse AP conjugated antibody (Biorad #170-6520) was diluted 1:10,000 in TBST.
This same spiking experiment as was done with MAB01 to investigate its stability in the 6 protease deletion supernatant with and without inhibitors (FIG. 43). Samples were taken as described above and immunoblotted with an anti-heavy chain AP conjugated antibody (Sigma #A3188). […] There was no obvious benefit having used inhibitors. The antibody was stable in this pH 4.2 supernatant. […]

[2] = test system: rituximab antibody producing strain; assay: Treatment of T. reesei rituximab cultures with inhibitors; assay type: cell-based, Trichoderma reesei; conditions: small shake flasks, inhibitors added daily day 2-5
Description: The effectiveness of the inhibitors was also tested with the rituximab antibody producing strain, which contains a VALEKR linker sequence and the pep1 deletion. This strain was grown in triplicate, in small flasks both in presence or absence of chymostatin, SBTI, or pepstatin A. The small shake flasks contained 50 ml of TrMM plus lactose (40 g/l), spent grain extract (20 g/l), and buffer with 100 mM PIPPS at pH 5.5. The SBTI inhibitor was added to the culture at final concentrations of either 100 μg/ml or 500 μg/ml. Chymostatin was used at 100 μM, and pepstatin A was used at 10 μM. Each of the three inhibitors was added to the cultures daily on day 2, 3, 4, and 5.
Growth of the cultures was followed daily by pH from day 2 until day 7. […] In the PIPPS buffered cultures, the pH decreased from an initial pH of 5.5 down to a pH of 4.8 after day 6. With chymostatin and pepstatin A the cultures were monitored up to day 7. On day 7 the average pH for the control bottles was 4.6, while the average pH for chymostatin treated cultures was 4.9, and the average pH of pepstatin A treated cultures was 5.0.
Culture supernatant samples (30 μl) were also collected on days 3, 4, and 5 for analysis of antibody production. The analysis was performed by immunoblots using an anti-IgG heavy chain antibody AP conjugate (Sigma #A3188) and an anti-light chain antibody AP conjugate (Sigma #A3812). Each antibody was diluted 1:30,000 in TBST. The full length rituximab heavy chain is about 51 kD, the rituximab light chain CHBI fusion is about 100 kD, and the free rituximab light chain is about 28 kD.

[3] = test system: SIP purified proteases (PEP2, PEP3, PEP4, PEP5, GAP1, SLP2); assay: Protease activity of SIP purified fractions against casein with inhibitors (EnzChek); assay type: biochemical, Trichoderma reesei; conditions: pH 5.5
Description: Protease activity was then tested against casein both in the presence and absence of protease inhibitors. Protease activity against casein was tested using the EnzChek protease assay kit (Molecular probes #E6638, green fluorescent casein substrate). The working stock solution was prepared by diluting the stock to 10 μg ml in 50 mM sodium citrate, pH 5.5. The purified protease fractions (10 μl) were diluted with […] of sodium citrate, pH 5.5. 100 μl of the diluted substrate was combined with the diluted protease fractions in a 96 well sample plate. The plate was then covered and kept at 37° C. for one to three hours. Fluorescence readings were taken at one, two, and three hours with a Varioskan fluorescent plate reader (Thermo Scientific) using 485 nm excitation and 530 nm emission.
The SIP inhibitor peptide, pepstatin A, LIP peptide, SBTI, and chymostatin were used as inhibitors. […] SIP, LIP, and pepstatin A were used at a concentration of 60 μM, and SBTI was used at a concentration of 200 μg/ml.

CC(C)CC(=O)N[C@H](C(=O)N[C@H](C(=O)N[C@@H](CC(C)C)[C@@H](O)CC(=O)N[C@@H](C)C(=O)N[C@@H](CC(C)C)[C@@H](O)CC(=O)O)C(C)C)C(C)C [pepstatin A] (Isovaleryl-VV[Sta]A[Sta]-OH)
stabilisation of hGH, IFNα2b and IGF1 in supernatant [1]: remarkably stabilized | effect on culture growth (followed by pH) [2]: small reduction in growth | proteases inhibited ([3]; SIP, LIP, pepstatin A 60 μM, SBTI 200 μg/ml): inhibited only aspartic proteases | inhibition of SIP purified protease activity against casein ([3]; FIG. 11): a large portion of the SIP protease activity was inhibited
